The values below come from paper PMC9246256, “Structure-based optimization of type III indoleamine 2,3-dioxygenase 1 (IDO1) inhibitors” (Journal of Enzyme Inhibition and Medicinal Chemistry, 2022).

For the assay, the target named is T1, purified recombinant IDO1 (Homo sapiens, UniProt P14902).
T1 construct: Full-length human IDO1 gene was cloned into the pET-28a vector; inferred from pET-28a vector and HisTrap purification; made in house; host or cells: E. coli Rosetta (DE3)
Kind of assay: Enzymatic IDO1 inhibition assay (ascorbate/methylene blue reduction system, HPLC detection of kynurenine). To be noted: for LE [kcal/mol/HA]: ligand efficiency, LE = -RT log(IC50)/number of heavy atoms, from enzymatic IC50; for IC50: enzymatic, L-Trp 100 µM, 0.01% Triton X-100, 5% DMSO, 20 min at room temperature, pH 6.5, duplicates. The format is biochemical.

Structures are written as SMILES. Where two headings read alike, the source gives them in different places.

T1 sequence (P14902 whole entry): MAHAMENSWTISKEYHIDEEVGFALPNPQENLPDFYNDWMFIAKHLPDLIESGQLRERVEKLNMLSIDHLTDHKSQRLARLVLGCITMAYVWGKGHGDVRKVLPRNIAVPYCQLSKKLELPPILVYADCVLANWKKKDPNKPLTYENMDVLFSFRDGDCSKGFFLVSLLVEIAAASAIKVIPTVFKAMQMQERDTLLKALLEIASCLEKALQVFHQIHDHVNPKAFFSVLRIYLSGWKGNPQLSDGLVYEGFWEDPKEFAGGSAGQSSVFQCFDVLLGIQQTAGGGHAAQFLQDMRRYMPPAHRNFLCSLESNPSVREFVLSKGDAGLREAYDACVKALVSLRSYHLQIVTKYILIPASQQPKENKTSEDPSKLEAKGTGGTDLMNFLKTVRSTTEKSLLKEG

Take `Nc1ccc(Br)cc1-c1nnc[nH]1` [Compound 12]: the “LE [kcal/mol/HA]” value is reported as 0.80 kcal/mol/HA.

`Oc1ccc(-c2c[nH]nn2)cc1` [Compound 20, 4–(1,2,3-Triazol-4-yl)phenol]: the IC50 (read-out: IC50 [ μ M] (SD)) is over 1000 µM.

Regarding `Cc1cccc(-c2cnn[nH]2)c1` [Compound 21], the “LE [kcal/mol/HA]” value stood at 0.53 kcal/mol/HA.

Regarding `CCc1cccc(-c2cnn[nH]2)c1` [Compound 22], the “LE [kcal/mol/HA]” value turned out to be 0.51 kcal/mol/HA.

For `CC(C)c1cccc(-c2c[nH]nn2)c1` [Compound 23, 4–(3-Isopropylphenyl)-1,2,3-triazole], the “LE [kcal/mol/HA]” value was 0.35 kcal/mol/HA. In addition, the IC50 (read-out: IC50 [ μ M] (SD)) came out at 280 µM.

Take `CCCCc1cccc(-c2c[nH]nn2)c1` [Compound 24, 4–(3-Butylphenyl)-1,2,3-triazole]: the “LE [kcal/mol/HA]” value is given as 0.41 kcal/mol/HA. The IC50 (read-out: IC50 [ μ M] (SD)) was 34 µM.

In the case of `c1ccc(COc2ccccc2-c2c[nH]nn2)cc1` [Compound 25, 4–(2-Benzyloxyphenyl)-1,2,3-triazole], the IC50 (read-out: IC50 [ μ M] (SD)) is over 500 µM.

Turning to `Oc1ccc(CCc2ccccc2)cc1-c1cnn[nH]1` [Compound 39, 4-Phenylethyl-2-(1H-1,2,3-triazol-5-yl)phenol], the “LE [kcal/mol/HA]” value is on record as 0.26 kcal/mol/HA. Besides, the IC50 (read-out: IC50 [ μ M] (SD)) was 160 µM.

Regarding `COc1cccc(OC)c1-c1c[nH]nn1` [Compound 45, 4–(2,6-Dimethoxyphenyl)-1,2,3-triazole], the IC50 (read-out: IC50 [ μ M] (SD)) is over 1000 µM.

As for `Clc1ccc(Cl)c(-c2cnn[nH]2)c1` [Compound 46], the “LE [kcal/mol/HA]” value is listed as 0.54 kcal/mol/HA.

In the case of `Clc1cc(Cl)cc(-c2c[nH]nn2)c1` [Compound 50, 4–(3,5-Dichlorophenyl)-1,2,3-triazole], the “LE [kcal/mol/HA]” value is reported as 0.44 kcal/mol/HA. Also, the IC50 (read-out: IC50 [ μ M] (SD)) was 58 µM.

As to `Clc1cccc(Cl)c1-c1c[nH]nn1` [Compound 51, 4–(2,6-Dichlorophenyl)-1,2,3-triazole], the “LE [kcal/mol/HA]” value is given as 0.37 kcal/mol/HA. Also, the IC50 (read-out: IC50 [ μ M] (SD)) was determined as 280 µM.

Take `N#Cc1[nH]nnc1-c1ccccc1` [Compound 62, 4-Phenyl-1H-1,2,3-triazole-5-carbonitrile]: the “LE [kcal/mol/HA]” value was determined as 0.34 kcal/mol/HA. The IC50 (read-out: IC50 [ μ M] (SD)) was 630 µM.

As to `Cc1[nH]nnc1-c1cccc(Cl)c1` [Compound 63, 4–(3-Chlorophenyl)-5-methyl-1,2,3-triazole], the IC50 (read-out: IC50 [ μ M] (SD)) is over 1000 µM.

Turning to `NC(=O)c1[nH]nnc1-c1cc(Cl)ccc1O` [Compound 67], where the note is “read-out: IC50 [ μ M] (SD)”, the IC50 is over 1000 µM.

For `c1ccc(Nc2cnn[nH]2)cc1` [Compound 79], the IC50 (read-out: IC50 [ μ M] (SD)) is over 100 µM.

On to `c1ccc(Nc2[nH]nnc2-c2ccccc2)cc1` [Compound 80], for which the IC50 (read-out: IC50 [ μ M] (SD)) is over 250 µM.

`c1ccc(Oc2cnn[nH]2)cc1` [Compound 82, 4-(Phenoxy)-1,2,3-triazole]: the IC50 (read-out: IC50 [ μ M] (SD)) was over 1000 µM.

Regarding `c1ccc(Sc2c[nH]nn2)cc1` [Compound 83, 4-(Phenylthio)-1,2,3-triazole], the “LE [kcal/mol/HA]” value is on record as 0.37 kcal/mol/HA. Besides, the IC50 (read-out: IC50 [ μ M] (SD)) amounted to 590 µM.

Regarding `O=S(=O)(c1ccccc1)c1c[nH]nn1` [Compound 84, 4-(Phenylsulfonyl)-1H-1,2,3-triazole], the IC50 (read-out: IC50 [ μ M] (SD)) was over 1000 µM.

For `OC(c1ccccc1)c1c[nH]nn1` (stereo not drawn) [Compound 85, Phenyl(1,2,3-triazol-4-yl)methanol], the IC50 (read-out: IC50 [ μ M] (SD)) was over 1000 µM.

Take `O=C(Nc1ccccc1)c1cn[nH]n1` [Compound 86, N-Phenyl-1H-1,2,3-triazole-4-carboxamide]: the IC50 (read-out: IC50 [ μ M] (SD)) was over 1000 µM.

`CON=C(c1ccccc1)c1c[nH]nn1` [Compound 87, Phenyl(1H-1,2,3-triazol-4-yl)methanone O-methyl oxime]: the IC50 (read-out: IC50 [ μ M] (SD)) is over 1000 µM.

On to `c1ccc2c(c1)ccc1nn[nH]c12` [Compound 88], for which the IC50 (read-out: IC50 [ μ M] (SD)) was over 100 µM.

Turning to `c1ccc2c(c1)Cc1n[nH]nc1-2` [Compound 89, 3,8-Dihydroindeno[1,2-d][1,2,3]triazole], the IC50 (read-out: IC50 [ μ M] (SD)) was over 1000 µM.

On to `O=C(c1ccccc1)c1cnn[nH]1` [Compound 99, Phenyl(1H-1,2,3-triazol-5-yl)methanone], for which the “LE [kcal/mol/HA]” value is reported as 0.35 kcal/mol/HA. The IC50 (read-out: IC50 [ μ M] (SD)) stood at 430 µM.

With `O=C(c1cnn[nH]1)c1ccccc1Cl` [Compound 100, (2-Chlorophenyl)(1H-1,2,3-triazol-5-yl)methanone], for the setting “read-out: IC50 [ μ M] (SD)”, the IC50 was over 1000 µM.

Turning to `O=C(c1cccc(Cl)c1)c1cnn[nH]1` [Compound 101, (3-Chlorophenyl)(1H-1,2,3-triazol-5-yl)methanone], the “LE [kcal/mol/HA]” value is given as 0.33 kcal/mol/HA. Also, the IC50 (read-out: IC50 [ μ M] (SD)) came out at 450 µM.

Turning to `COc1ccccc1C(=O)c1cnn[nH]1` [Compound 103, (2-Methoxyphenyl)(1H-1,2,3-triazol-5-yl)methanone], where the note is “read-out: IC50 [ μ M] (SD)”, the IC50 was over 1000 µM.

For the molecule `COc1cccc(C(=O)c2cnn[nH]2)c1` [Compound 104, (3-Methoxyphenyl)(1H-1,2,3-triazol-5-yl)methanone], the “LE [kcal/mol/HA]” value is listed as 0.28 kcal/mol/HA. Moreover, the IC50 (read-out: IC50 [ μ M] (SD)) turned out to be 990 µM.

For the molecule `O=C(c1cccc(O)c1)c1cnn[nH]1` [Compound 107, (3-Hydroxyphenyl)(1H-1,2,3-triazol-5-yl)methanone], the IC50 (read-out: IC50 [ μ M] (SD)) was over 1000 µM.

On to `O=C(c1ccc(O)cc1)c1cnn[nH]1` [Compound 108, (4-Hydroxyphenyl)(1H-1,2,3-triazol-5-yl)methanone], for which the IC50 (read-out: IC50 [ μ M] (SD)) was over 1000 µM.

For `O=C(c1ccc(Br)cc1)c1[nH]nnc1CO` [Compound 123, (4-Bromophenyl)(4-(hydroxymethyl)-1H-1,2,3-triazol-5-yl)methanone], the IC50 (read-out: IC50 [ μ M] (SD)) is over 1000 µM.

Regarding `O=C(c1ccc(Br)cc1)c1[nH]nnc1CBr` [Compound 124, (4-(Bromomethyl)-1H-1,2,3-triazol-5-yl)(4-bromophenyl)methanone], where the note is “read-out: IC50 [ μ M] (SD)”, the IC50 was over 1000 µM.

On to `NCc1nn[nH]c1C(=O)c1ccc(Br)cc1` [Compound 126, (4-(Aminomethyl)-1H-1,2,3-triazol-5-yl)(4-bromophenyl)methanone], for which the IC50 (read-out: IC50 [ μ M] (SD)) was over 1000 µM.

For `Fc1ccc(-c2nc[nH]n2)cc1` [Compound 134, 3–(4-Fluorophenyl)-1H-1,2,4-triazole], the IC50 (read-out: IC50 [ μ M] (SD)) was over 1000 µM.

`Brc1cccc(-c2nc[nH]n2)c1` [Compound 135, 3–(3-Bromophenyl)-1H-1,2,4-triazole]: the “LE [kcal/mol/HA]” value is on record as 0.55 kcal/mol/HA. The IC50 (read-out: IC50 [ μ M] (SD)) turned out to be 16 µM.

With `Fc1cccc(-c2nc[nH]n2)c1` [Compound 137, 3–(3-Fluorophenyl)-1H-1,2,4-triazole], the “LE [kcal/mol/HA]” value amounted to 0.43 kcal/mol/HA. In addition, where the note is “read-out: IC50 [ μ M] (SD)”, the IC50 came to 160 µM.

In the case of `O=C(Nc1ccccc1-c1nc[nH]n1)c1ccccc1` [Compound 152, N-(2-(1H-1,2,4-triazol-3-yl)phenyl)benzamide], the IC50 (read-out: IC50 [ μ M] (SD)) was over 100 µM.

`O=C(Nc1c(Cl)cccc1-c1nc[nH]n1)c1ccccc1` [Compound 154, N-(2-Chloro-6-(1H-1,2,4-triazol-3-yl)phenyl)benzamide]: the IC50 (read-out: IC50 [ μ M] (SD)) is over 1000 µM.

As for `Cc1c(Br)ccc(N)c1-c1nc[nH]n1` [Compound 155, 4-Bromo-3-methyl-2-(1H-1,2,4-triazol-3-yl)aniline], the “LE [kcal/mol/HA]” value is listed as 0.41 kcal/mol/HA. For the setting “read-out: IC50 [ μ M] (SD)”, the IC50 amounted to 63 µM.

Consider `c1cc(-c2nc[nH]n2)ccn1` [Compound 158, 4-(1H-1,2,4-Triazol-3-yl)pyridine], for which, where the note is “read-out: IC50 [ μ M] (SD)”, the IC50 was over 1000 µM.

Regarding `c1ccc(-c2nnc[nH]2)nc1` [Compound 159, 2-(1H-1,2,4-Triazol-3-yl)pyridine], for the setting “IC50 [ μ M] (SD)”, the IC50 is over 1000 µM.

On to `Nc1cccnc1-c1nc[nH]n1` [Compound 160, 2-(1H-1,2,4-Triazol-3-yl)pyridine-3-amine], for which the “LE [kcal/mol/HA]” value amounted to 0.55 kcal/mol/HA. Further, the IC50 (read-out: IC50 [ μ M] (SD)) is 16 µM.

With `Nc1ccsc1-c1nc[nH]n1` [Compound 161, 2-(1H-1,2,4-Triazol-3-yl)thiophen-3-amine], the “LE [kcal/mol/HA]” value is recorded as 0.57 kcal/mol/HA. Besides, the IC50 (read-out: IC50 [ μ M] (SD)) was 10 µM.

For the molecule `Clc1cncc(-c2nc[nH]n2)n1` [Compound 162, 2-Chloro-6-(1H-1,2,4-triazol-3-yl)pyrazine], the “LE [kcal/mol/HA]” value is 0.41 kcal/mol/HA. Further, under “read-out: IC50 [ μ M] (SD)”, the IC50 was 250 µM.

For `Brc1ccc(Nc2nnc[nH]2)cc1` [Compound 166, N-(4-Bromophenyl)-4H-1,2,4-triazol-3-amine], the IC50 (read-out: IC50 [ μ M] (SD)) was over 1000 µM.

As to `Cc1cccc2sc3nncn3c12` [Compound 167, tryclazole, reference compound], the IC50 (IC50 [ μ M] (SD)) is over 1000 µM.

`NC(=O)CSc1nnc2sc3ccccc3n12` [Compound 168, 2-((1,9a-Dihydrobenzo[4,5]thiazolo[2,3-c][1,2,4]triazol-3-yl)thio)acetamide]: where the note is “read-out: IC50 [ μ M] (SD)”, the IC50 was over 1000 µM.

For `c1ccc(-n2cncn2)cc1` [Compound 170, 1-phenyl-1,2,4-triazole], the “LE [kcal/mol/HA]” value came to 0.38 kcal/mol/HA. Also, the IC50 (read-out: IC50 [ μ M] (SD)) is 870 µM.

For the molecule `Oc1ccccc1-n1cncn1` [Compound 171], the “LE [kcal/mol/HA]” value is 0.52 kcal/mol/HA. For the same molecule, where the note is “read-out: IC50 [ μ M] (SD)”, the IC50 is 32 µM.
